In patent publication US20180327367A1, “MACROCYCLIC BROAD SPECTRUM ANTIBIOTICS” (priority 2015, published 2018):
In brackets after ≈: the same amount, converted by molar mass. Like-named read-outs stand apart in the source and are kept apart here.

Key:
Format in all cases: cell-based
[1] = test system: Methicillin Resistant Staphylococcus aureus strain USA 300, NRS384; test: Minimum inhibitory concentration, broth micro-dilution (CLSI), S. aureus; conditions: for MIC: Staphylococcus aureus, MRSA / NRS 384 / USA300, 22 h
Description: (§1) In vitro antimicrobial activity of each compound was determined by measuring minimal inhibitor concentrations (MICs) using the broth micro-dilution technique as approved by the Clinical and Laboratory Standards Institute (CLSI) (Methods for Dilution Antimicrobial Susceptibility Tests for Bacteria that Grow Aerobically; Approved Standard—Eighth Edition. CLSI document M07-A8. Wayne, Pa.: Clinical and Laboratory Standards; 2009). Antibacterial activity was measure against three strains of bacteria: a Methicillin Resistant Staphylococcus aureus strain USA 300, NRS384 (S. aureus); a strain of Escherichia coli MC4100 harboring the IMP4213 (E. coli IMP), which results in increased outer-membrane permeability (B Martin and Silhavy T. Imp/OstA is required for cell envelope biogenesis in Escherichia coli. (2002) Molecular Microbiology, 45(5), 1289-1302), and Escherichia coli ATCC 25922 (E. coli), a clinically relevant Gram-negative strain. Cells were inoculated onto plates of Trypyticase Soy Agar or Luria Agar respectively and grown at 35° C. for 20 hours. Inocula suspensions were prepared by scraping cells into 1 mL of testing media (cation adjusted Mueller Hinton Broth supplemented with 0.002% v/v Tween-80) and diluting to a final OD600 nm of 0.01.
(§2) Test compounds were prepared in DMSO at a concentration of 10 mg/mL. […] In protocol 2, the compound stocks were diluted into testing media at a concentration of 4 μg/mL and serial 2-fold dilutions were made in the same media, in 96-well U bottom microtiter dishes, for a total of 10 compound concentrations. In protocol 3, compound stocks were diluted into testing media at a concentration of 0.5 μg/mL, with serial 2-fold dilutions conducted as described above. […] Inocula suspensions were added to the 2-fold serial dilutions of test compounds to a final density of OD OD600 nm of 0.0005 and incubated at 35° C. for 22 hours.

[2] = test system: Escherichia coli ATCC 25922; test: Minimum inhibitory concentration, broth micro-dilution (CLSI), E. coli; conditions: for MIC: Escherichia coli, ATCC25922, 22 h
Description: Cells were inoculated onto plates of Trypyticase Soy Agar or Luria Agar respectively and grown at 35° C. for 20 hours. Inocula suspensions were prepared by scraping cells into 1 mL of testing media (cation adjusted Mueller Hinton Broth supplemented with 0.002% v/v Tween-80) and diluting to a final OD600 nm of 0.01.
as §2

[3] = test system: Escherichia coli MC4100 harboring the IMP4213 (E. coli IMP); test: microbe, parasite or virus in culture; conditions: for MIC: Escherichia coli, 22 h
Description: as §1, §2

[4] = MRSA USA 300 NRS384, 35° C., 22 hours, read-out: MIC (μg/mL) S. aureus
[5] = E. coli ATCC 25922, 35° C., 22 hours, read-out: MIC (μg/mL) E. coli
[6] = read-out: MIC (μg/mL) E. coli IMP, E. coli MC4100 IMP4213, increased outer-membrane permeability, 35° C., 22 hours
[7] = read-out: MIC (μg/mL) S. aureus
[8] = read-out: MIC (μg/mL) E. coli IMP
[9] = read-out: MIC (μg/mL) S. aureus, MRSA USA 300 NRS384, 35° C., 22 hours
[10] = read-out: MIC (μg/mL) E. coli, E. coli ATCC 25922, 35° C., 22 hours

Row | SMILES | MIC [1, 4] [µg/mL] | MIC [2, 5] [µg/mL] | MIC [3, 6] [µg/mL] | other results
1 | Cc1cc(-n2cc(C#CC(C)C)cn2)ccc1C(=O)N[C@@H](CCN)C(=O)N(C)[C@@H]1C(=O)N[C@@H](C)C(=O)N[C@H](C(=O)NCC#N)Cc2ccc(OCCN)c(c2)-c2cc1ccc2OCCN [Compound 446] | 0.063 (≈ 0.0709 µM) | 0.5 (≈ 0.563 µM) | 0.012 (≈ 0.0135 µM) | 
2 | CCCCCCCCc1ccc2c(=O)n([C@@H](CCN)C(=O)N(C)[C@@H]3C(=O)N[C@@H](C)C(=O)N[C@H](C(=O)NCC#N)Cc4ccc(OCCN)c(c4)-c4cc3ccc4OCCN)c(C)nc2c1 [Compound 487] | 0.5 (≈ 0.56 µM) | 8 (≈ 8.96 µM) | 0.25 (≈ 0.28 µM) | 
3 | C[C@@H]1NC(=O)[C@@H](N(C)C(=O)[C@H](CCN)NC(=O)c2ccc(OCC(C)(C)C)c3ccccc23)c2ccc(OCCN)c(c2)-c2cc(ccc2OCCN)C[C@@H](C(=O)NCC#N)NC1=O [Compound 296] | 0.047 (≈ 0.0535 µM) | 2 (≈ 2.28 µM) | 0.031 (≈ 0.0353 µM) | 
4 | CCCCCCCCCCCC(=O)N[C@@H](CO)C(=O)N(C)[C@@H]1C(=O)N[C@@H](C)C(=O)N[C@H](C(=O)N[C@H](C#N)CC)Cc2ccc(OCCN)c(c2)-c2cc1ccc2OCCN [Compound 419] |  |  |  | MIC [1, 7]: 4 µg/mL (≈ 4.79 µM); MIC ([2]; read-out: MIC (μg/mL) E. coli): 32 µg/mL (≈ 38.3 µM); MIC [3, 8]: 0.75 µg/mL (≈ 0.898 µM)
5 | CCCCCCCCCCCC(=O)N[C@@H](CCC#N)C(=O)N(C)[C@@H]1C(=O)N[C@@H](C)C(=O)N[C@H](C(=O)NCC#N)Cc2ccc(OCCN)c(c2)-c2cc1ccc2OCCN [Compound 455] | 0.5 (≈ 0.602 µM) | 32 (≈ 38.6 µM) | 0.5 (≈ 0.602 µM) | 
6 | CCCCCCCn1cc(C(=O)N[C@@H](CCN)C(=O)N(C)[C@@H]2C(=O)N[C@@H](C)C(=O)N[C@H](C(=O)NCC#N)Cc3ccc(OCCN)c(c3)-c3cc2ccc3OCCN)c(C)nc1=O [Compound 301] | 4 (≈ 4.59 µM) | > 64 | 4 (≈ 4.59 µM) | 
7 | C[C@@H]1NC(=O)[C@@H](N(C)C(=O)[C@H](CCCCN)NC(=O)c2ccc(-c3ccc(Cl)cc3)cc2)c2ccc(OCC(O)CN)c(c2)-c2cc(ccc2OCC(O)CN)C[C@@H](C(=O)NCC#N)NC1=O (mixture of isomers) [Compound 515] | 0.094 | 4 | 0.063 | 
8 | CCCCCCCCc1ccc(C(=O)N[C@@H](CCN)C(=O)N(C)[C@@H]2C(=O)N[C@@H](C)C(=O)N[C@H](C(=O)NCC#N)Cc3ccc(OCCN)c(c3)-c3cc2ccc3OCCN)c(/C=C/C(=O)O)c1 [Compound 414] |  |  |  | MIC [1, 7]: 0.5 µg/mL (≈ 0.541 µM); MIC ([2]; read-out: MIC (μg/mL) E. coli): 64 µg/mL (≈ 69.3 µM); MIC [3, 8]: 0.25 µg/mL (≈ 0.271 µM)
9 | CCCCCCCc1ccc(C(=O)N[C@@H](CCN)C(=O)N(C)[C@@H]2C(=O)N[C@@H](C)C(=O)N[C@H](C(=O)NCC#N)Cc3ccc(OCCNC(=O)CN)c(c3)-c3cc2ccc3OCCNC(=O)CN)c(C)c1 [Compound 499] | 0.063 (≈ 0.0651 µM) | 0.5 (≈ 0.516 µM) | 0.023 (≈ 0.0238 µM) | 
10 | CCCCc1ccc(-c2ncc(C(=O)N[C@@H](CCN)C(=O)N(C)[C@@H]3C(=O)N[C@@H](C)C(=O)N[C@H](C(=O)NCC#N)Cc4ccc(O)c(c4)-c4cc3ccc4OCCN)c(C)n2)cc1 [Compound 503] | 0.031 (≈ 0.0366 µM) | 0.13 (≈ 0.153 µM) | 0.002 (≈ 0.00236 µM) | 
11 | CCCCCCCCCC(=O)N(C)[C@@H](CO)C(=O)N[C@@H](CCN)C(=O)N(C)[C@@H]1C(=O)N[C@@H](C)C(=O)N[C@H](C(=O)NCC#N)Cc2ccc(OCCN)c(c2)-c2cc1ccc2OCCN [Compound 388] |  |  | 0.25 (≈ 0.28 µM) | MIC [1, 9]: 0.25 µg/mL (≈ 0.28 µM); MIC [2, 10]: 48 µg/mL (≈ 53.7 µM)
12 | CCCCCCCCCC(=O)N[C@@H](CO)C(=O)N(C)[C@@H](CCN)C(=O)N(C)[C@@H]1C(=O)N[C@@H](C)C(=O)N[C@H](C(=O)NCC#N)Cc2ccc(OCCN)c(c2)-c2cc1ccc2OCCN [Compound 399] |  |  | 0.19 (≈ 0.213 µM) | MIC [1, 9]: 0.25 µg/mL (≈ 0.28 µM); MIC [2, 10]: 16 µg/mL (≈ 17.9 µM)
13 | CCCCCCCCc1ccc(C(=O)N[C@@H](CCN)C(=O)N(C)[C@@H]2C(=O)N[C@@H](C)C(=O)N[C@H](C(=O)NCC#N)Cc3ccc(OCCN)c(c3)-c3cc2ccc3OCCN)c(OCC(=O)NCC#N)c1 [Compound 410] | 0.13 (≈ 0.135 µM) | 6 (≈ 6.21 µM) | 0.13 (≈ 0.135 µM) | 
14 | CCCCCCCCCC(=O)N[C@H](C)C(=O)N[C@@H](CCN)C(=O)N(C)[C@@H]1C(=O)N[C@@H](C)C(=O)N[C@H](C(=O)NCC#N)Cc2ccc(OCCN)c(c2)-c2cc1ccc2OCCN [Compound 374] |  |  | 0.13 (≈ 0.151 µM) | MIC [1, 9]: 0.19 µg/mL (≈ 0.22 µM); MIC [2, 10]: 16 µg/mL (≈ 18.5 µM)
15 | CCCCc1ccc(C(=O)N[C@H](CCCCN)CC(=O)N(C)[C@@H]2C(=O)N[C@@H](C)C(=O)N[C@H](C(=O)NCC#N)Cc3ccc(OCCN)c(c3)-c3cc2ccc3OCCN)c(C)c1 [Compound 510] | 1.5 (≈ 1.76 µM) | > 64 | > 4 | 
16 | CCCCCCc1ccc(C(=O)N[C@@H](CCN)C(=O)N(C)[C@@H]2C(=O)N[C@@H](C)C(=O)N[C@H](C(=O)NCC#N)Cc3ccc(OCCN)c(c3)-c3cc2ccc3OCCN)c(OCCN)c1 [Compound 519] | 0.13 (≈ 0.147 µM) | 16 (≈ 18.1 µM) | 0.25 (≈ 0.282 µM) | 
17 | CCCCc1ccc(C(=O)N[C@@H](CCCCN)CC(=O)N(C)[C@@H]2C(=O)N[C@@H](C)C(=O)N[C@H](C(=O)NCC#N)Cc3ccc(OCCN)c(c3)-c3cc2ccc3OCCN)c(C)c1 [Compound 509] | 3 (≈ 3.51 µM) | > 64 | > 4 | 
18 | CCCCCCCCCCCNC(=O)C(CCN)C(=O)N(C)[C@@H]1C(=O)N[C@@H](C)C(=O)N[C@H](C(=O)NCC#N)Cc2ccc(OCCN)c(c2)-c2cc1ccc2OCCN (single isomer, unassigned) [Compound 497-P1] |  |  |  | MIC (μg/mL) S. aureus ([1]; MRSA USA 300 NRS384, 35° C., 22 hours): 0.063 µg/mL (≈ 0.0768 µM); MIC (μg/mL) E. coli ([2]; E. coli ATCC 25922, 35° C., 22 hours): 2 µg/mL (≈ 2.44 µM); MIC (μg/mL) E. coli IMP ([3]; E. coli MC4100 IMP4213, increased outer-membrane permeability, 35° C., 22 hours): 0.016 µg/mL (≈ 0.0195 µM)
19 | C[C@@H]1NC(=O)[C@@H](N(C)C(=O)[C@H](CCN)NC(=O)CCCC2CCCCC2)c2ccc(OCCN)c(c2)-c2cc(ccc2OCCN)C[C@@H](C(=O)NCC#N)NC1=O [Compound 126] | 0.5 (≈ 0.633 µM) | 32 (≈ 40.5 µM) | 0.25 (≈ 0.316 µM) | 
20 | CCCCCCOc1ccc(N2CCN(c3ccc(C(=O)N[C@@H](CCN)C(=O)N(C)[C@@H]4C(=O)N[C@@H](C)C(=O)N[C@H](C(=O)NCC#N)Cc5ccc(OCCN)c(c5)-c5cc4ccc5OCCN)cc3)CC2)cc1 [Compound 527] | 0.063 (≈ 0.0629 µM) | 4 (≈ 3.99 µM) | 0.063 (≈ 0.0629 µM) | 
21 | C[C@@H]1NC(=O)[C@@H](N(C)C(=O)[C@H](CCN)NC(=O)c2ccc(OCC(C)(C)C)cc2Cl)c2ccc(OCCN)c(c2)-c2cc(ccc2OCCN)C[C@@H](C(=O)NCC#N)NC1=O [Compound 279] | 0.13 (≈ 0.151 µM) | 0.5 (≈ 0.58 µM) | 0.02 (≈ 0.0232 µM) | 
22 | Cc1nc(-c2ccc(-c3ccccc3)cc2)ncc1C(=O)N[C@@H](CCN)C(=O)N(C)[C@@H]1C(=O)N[C@@H](C)C(=O)N[C@H](C(=O)NCC#N)Cc2ccc(OCCN)c(c2)-c2cc1ccc2OCCN [Compound 158] | 0.031 (≈ 0.0341 µM) | 0.11 (≈ 0.121 µM) | 0.002 (≈ 0.0022 µM) | 
23 | CCCCCCCCc1ccc(C(=O)NCC(=O)N(C)[C@@H]2C(=O)N[C@@H](C)C(=O)N[C@H](C(=O)NCC#N)Cc3ccc(OCCN)c(c3)-c3cc2ccc3OCCN)c(C)c1 [Compound 252] | 0.25 (≈ 0.303 µM) | 2 (≈ 2.42 µM) | 0.023 (≈ 0.0279 µM) | 
24 | CCCCCCCCc1ccc(C(=O)N[C@@H](CCN)C(=O)N(C)[C@@H]2C(=O)N[C@@H](C)C(=O)N[C@H](C(=O)NCC#N)Cc3ccc(OCCN)c(c3)-c3cc2ccc3OCCN)c(Br)c1 [Compound 211] | 0.063 (≈ 0.0675 µM) | 0.11 (≈ 0.118 µM) | 0.055 (≈ 0.059 µM) | 
25 | CCCCCCCCCC(=O)N[C@H](CO)C(=O)N[C@@H](CCN)C(=O)N(C)[C@@H]1C(=O)N[C@@H](C)C(=O)N[C@H](C(=O)NCC#N)Cc2ccc(OCCN)c(c2)-c2cc1ccc2OCCN [Compound 359] |  |  | 0.13 (≈ 0.148 µM) | MIC [1, 9]: 0.063 µg/mL (≈ 0.0717 µM); MIC [2, 10]: 16 µg/mL (≈ 18.2 µM)
26 | CCCCCCCCCC(=O)N[C@@H](CCNC(C)=O)C(=O)N[C@@H](CCN)C(=O)N(C)[C@@H]1C(=O)N[C@@H](C)C(=O)N[C@H](C(=O)NCC#N)Cc2ccc(OCCN)c(c2)-c2cc1ccc2OCCN [Compound 386] |  |  | 0.5 (≈ 0.535 µM) | MIC [1, 9]: 0.38 µg/mL (≈ 0.407 µM); MIC [2, 10]: 64 µg/mL (≈ 68.5 µM)
